The record followed here is patent US9458123B2, “Methods, pharmaceutical compositions, therapeutic systems, and compounds for treating B cell malignancies” (University of Rochester, priority 2012, dated 2016).

The test system of test [1] is osteosarcoma U2OS cells. In words: Cell viability, trypan blue exclusion assay. It counts as cell-based. To be noted: 24 hours. The procedure: (§1) 1×10^6 cells were plated in 10 cm plates and cultured overnight. The indicated concentrations of NSC697923 were then added into culture medium for 24 hours before the cell viability was analyzed by trypan blue exclusion assay. Shown are the averages from three independent experiments.
(§2) Apoptosis was assayed using the 7AAD/annexin V apoptosis kit (BD Bioscience) as previously described (Kim et al., “Protein Kinase C-Associated Kinase is Required for NF-kappaB Signaling and Survival in Diffuse Large B-Cell Lymphoma Cells,” Blood 111:1644-1653 (2008), which is hereby incorporated by reference in its entirety). Analysis of the cell cycle distribution of the treated cells was carried out with propidium iodide (PI) and BrdU double staining as previously described (DeRan et al., “Assessing G1-to-S-Phase Progression after Genotoxic Stress,” Methods Mol. Biol. 782:221-230 (2011) and Su et al., “DNA Damage Induces Downregulation of Histone Gene Expression Through the G1 Checkpoint Pathway,” EMBO. J. 23:1133-1143 (2004), each of which is hereby incorporated by reference in its entirety).

For test [2], the system named is breast cancer MDA-MB231 cells. In words: Cell viability, trypan blue exclusion assay. It counts as cell-based. The note with it: 24 hours. The procedure: as §1, §2
The test system of test [3] is p53 signaling in OCI-Ly10 cells. Kind of test: Nuclear p53 and p21 expression, western blot. It counts as cell-based. To be noted: 3.5 hours. The procedure:
OCI-Ly10 cells were treated with indicated concentrations of NSC697923 for 3.5 hours. The level of p53 in the nuclear extract and the level of p21 in the whole cell lysates were analyzed by western blotting.

The test system of test [4] is K63-linked ubiquitination and repair protein recruitment in U2OS cells. In words: DNA double-strand break focus formation after γ-irradiation. It counts as cell-based. To be noted: 1 μM, γ-irradiated 10 Gy. The procedure:
Osteosarcoma U2OS cells were pretreated with 1 μM NSC697923 for 1 hour before γ-irradiated (10 Gy). 30 minutes after irradiation, the cells were fixed and stained with the monoclonal antibody FK2, which recognizes protein-conjugated, but not free, ubiquitin and marks the foci formed by K63-linked ubiquitinated proteins at sites of DSBs. […] U2OS cells were treated as described in FIG. 13A except that the focus formation of the indicated proteins is detected with their respective antibodies.

Test [5] concerns IκBα phosphorylation by RANKL in RAW264.7 cells. In words: IκBα phosphorylation after RANKL, western blot. The test is classed as cell-based. The note with it: RAW264.7, RANKL 15 ng/ml. The procedure:
SUDHL-6, RAW264.7, and MEF cells were treated with NSC697923 or DMSO (control) for 1 hour before being stimulated with the PMA (100 ng/ml), RANKL (15 ng/ml), and LPS (1.5 μg/ml) for the indicated times. The levels of IκBα phosphorylation in the indicated samples were assessed by western blotting.
A general note: A western blot detects proteins with antibodies after separation by electrophoresis.

For test [6], the target named is T1, Ubc13 in OCI-Ly10 cells (Homo sapiens, UniProt P61088).
T1 construct: endogenous in cells; host or cells: OCI-Ly10
T1 sequence (P61088 whole entry): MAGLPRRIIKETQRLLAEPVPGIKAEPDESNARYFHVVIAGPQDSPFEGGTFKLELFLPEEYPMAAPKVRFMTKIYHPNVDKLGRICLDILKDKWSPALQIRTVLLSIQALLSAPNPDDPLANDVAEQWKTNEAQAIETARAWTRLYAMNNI
Kind of test: Ubc13~Ub conjugate formation in DLBCL cells, western blot. It counts as cell-based. The note with it: 3 hours. How it is done: OCI-Ly10 cells were treated with the indicated concentrations of NSC697923 for 3 hours. The levels of Ubc13˜Ub conjugate were analyzed by western blotting using a Ubc13-specific antibody as described in FIG. 4B. […] OCI-Ly10 cells were treated with DMSO (0.1%) or the indicated concentrations of NSC697923 for 3.5 hours. The levels of the indicated proteins were analyzed by western blotting with the respective antibodies.

Test [7] has as its target T2, Ubc13-Uev1A (Homo sapiens, UniProt P61088).
T2 construct: purchased Boston Biochem Inc E2-600 (Ubc13); E2-662 (Uev1A)
Kind of test: In vitro ubiquitination assay, Ubc13-Uev1A. It counts as biochemical. How it is done: The in vitro reaction, which contains purified E1, ubiquitin, Ubc13, and Uev1A, was carried out with or without the indicated concentrations of NSC697923. The reaction products were analyzed by a ubiquitin-specific antibody on western blots. FIG. 4B is the same as FIG. 4A, except that purified GST-TRAF6 was included as the E3 in the complete reaction as indicated. […] The assay was carried out as in FIG. 4B, except that UbcHSc instead of Ubc13-Uev1A was used as the E2 in the ubiquitination reaction.
The purified recombinant proteins used in the in vitro ubiquitination reactions were all purchased from Boston Biochem Inc, except GST-TRAF6, which was expressed and purified as described above. The reactions were carried out at 37° C. for 40 minutes in a buffer containing 50 mM Tris-HCl, pH 7.5, 5 mM MgCl2, 200 μM ATP, 120 μM ubiquitin (U-100H), and 0.1 μM E1 (E-304). For the Ubc13-mediated ubiquitin chain synthesis, the reaction mixture includes 0.2 μM Ubc13 (E2-600) and […] Uev1A (E2-662) with or without GST-TRAF6 as indicated. For UbcHSc-catalyzed ubiquitination, UbcHSc (E2-627), instead of Ubc13 and Uev1A, was used in the reaction. […] The reactions were terminated by the addition of an equal volume of SDSPAGE sample buffer, and the products were analyzed by western blotting with a ubiquitin specific antibody.

T2 sequence (P61088 whole entry): as above
T2 sequence (Q13404 whole entry partner): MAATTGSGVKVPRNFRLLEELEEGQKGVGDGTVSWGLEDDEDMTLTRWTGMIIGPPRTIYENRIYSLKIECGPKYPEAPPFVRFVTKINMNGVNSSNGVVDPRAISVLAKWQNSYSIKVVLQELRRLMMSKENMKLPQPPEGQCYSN

In the case of `Cc1ccc(S(=O)(=O)c2ccc([N+](=O)[O-])o2)cc1` [NSC697923, 2-nitro-5-tosylfuran], the “toxic effects on proliferation and survival compared to DLBCL cells” value in test [1] is “much less toxic effects”. Moreover, the “toxic effects on proliferation and survival compared to DLBCL cells” value in test [2] is given as “much less toxic effects”. Further, in test [3], the “nuclear level of p53 protein” value is on record as “increased” and the p21 expression result is given as “increased”. In test [4], the FK2 focus formation result is recorded as “inhibition of FK2 focus formation”, the “recruitment of 53BP1 to sites of DNA double-strand breaks” value is given as “inhibits recruitment” and the “recruitment of BRCA1 to sites of DNA double-strand breaks” value is “inhibits recruitment”. In addition, the “IκBα phosphorylation by RANKL” value in test [5] was “inhibited”. Further, in test [6], the “formation of the Ubc13~Ub conjugate in cells” value was “inhibited formation of the Ubc13˜Ub conjugate”. In addition, the “polyubiquitin chain formation catalyzed by Ubc13-Uev1A” value in test [7] (E1, ubiquitin, Ubc13, Uev1A, without E3) was “inhibited polyubiquitin chain formation catalyzed by Ubc13-Uev1A complex in a dose-dependent manner”. The “ubiquitin chain formation catalyzed by Ubc13-Uev1A together with TRAF6” value in test [7] (GST-TRAF6 as E3) is recorded as “similarly inhibited by NSC697923 in a dose-dependent manner”.
